Assay results reported in ChEMBL document CHEMBL1201862, “PubChem BioAssay data set” (2004).
Calls of active or inactive are those of the source.

Assays:
HEK293 [1] = assay: Fluorescence-based counterscreen for potentiators or agonists of NPY-Y2: cell-based high-throughput dose response assay to identify inhibitors of cyclic nucleotide gated ion channel (CNGC) activity. In this assay, the parental HEK293 cell line transfected with a cyclic-nucleotide gated ion channel (CNGC)-based cAMP sensor is used to measure inhibition of isoproterenol-induced CNGC activity by test compound.; format: functional; conditions: Homo sapiens
[2] = target: T1, Neuropeptide Y receptor type 1 (Homo sapiens, UniProt P25929); assay: Fluorescence-based counterscreen for agonists of NPY-Y2: cell-based high-throughput dose response assay for agonists of NPY-Y1.; format: functional
T1 sequence (P25929 whole entry): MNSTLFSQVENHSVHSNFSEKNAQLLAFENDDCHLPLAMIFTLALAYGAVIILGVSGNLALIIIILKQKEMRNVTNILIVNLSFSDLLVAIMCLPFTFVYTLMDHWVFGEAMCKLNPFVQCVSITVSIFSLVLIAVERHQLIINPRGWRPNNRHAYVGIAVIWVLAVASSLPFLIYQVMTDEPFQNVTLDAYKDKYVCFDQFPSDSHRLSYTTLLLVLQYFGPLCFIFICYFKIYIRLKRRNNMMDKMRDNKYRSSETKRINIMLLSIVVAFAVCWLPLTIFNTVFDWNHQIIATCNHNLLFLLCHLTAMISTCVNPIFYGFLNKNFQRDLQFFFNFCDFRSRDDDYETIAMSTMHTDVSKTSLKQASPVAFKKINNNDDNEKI

[3] = target: Heat shock protein HSP 90-alpha (Homo sapiens, UniProt P07900); format: functional, organism-based
[4] = miR-122 activators in hepatoma reporter cells, dose response, cell-based, Huh7 psiCHECK-miR122, Renilla luciferase, cherry-picked (AID 651956); format: functional;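 also: huh7 hepatoma cells stably carrying a psiCHECK-2 miR-122 sensor plasmid; renilla luciferase signal reporting endogenous miR-122 activity after 48 h compound exposure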
HEK293 [5] = assay: NOD1 signaling inhibitors, primary screen, cell-based, luminescence, uHTS (AID 1578); format: functional; conditions: Homo sapiens
[6] = tested on: Streptococcus sp. 'group A'; assay: growth inhibition of control SK(-) GAS strain, dose response, counter-screen for streptokinase expression inhibitor project, luminescence, kanamycin, BacTiterGlo, confirmation (AID 1900); format: functional, organism-based
HEK293 [7] = assay: cells; format: functional, cell-based; conditions: Homo sapiens
HEK293 [8] = assay: cells; format: functional, cell-based; conditions: Homo sapiens; remark: listed apart in the source
[9] = A375 melanoma cell viability loss, dose response, counter-screen for MITF inhibitor project, CellTiter-Glo luminescence, dry powder, set 4 (AID 624364); format: functional, cell-based; conditions: A-375;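 also: A375 melanoma cells are MITF independent so this is a counter screen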
[10] = A375 melanoma cell cytotoxicity, dose response, counter-screen for MITF inhibitor project, CellTiter-Glo luminescence, dry powder, set 2 (AID 624489); format: functional, cell-based; conditions: A-375;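 also: actives are compounds lowering A375 viability meaning general cytotoxicity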
[11] = target: T2, Zinc finger protein mex-5 (Caenorhabditis elegans, UniProt Q9XUB2); assay: MEX-5/TCR-2 RNA interaction inhibitors, dose response, biochemical, C. elegans, fluorescence polarization (AID 1960)
T2 sequence (Q9XUB2 whole entry): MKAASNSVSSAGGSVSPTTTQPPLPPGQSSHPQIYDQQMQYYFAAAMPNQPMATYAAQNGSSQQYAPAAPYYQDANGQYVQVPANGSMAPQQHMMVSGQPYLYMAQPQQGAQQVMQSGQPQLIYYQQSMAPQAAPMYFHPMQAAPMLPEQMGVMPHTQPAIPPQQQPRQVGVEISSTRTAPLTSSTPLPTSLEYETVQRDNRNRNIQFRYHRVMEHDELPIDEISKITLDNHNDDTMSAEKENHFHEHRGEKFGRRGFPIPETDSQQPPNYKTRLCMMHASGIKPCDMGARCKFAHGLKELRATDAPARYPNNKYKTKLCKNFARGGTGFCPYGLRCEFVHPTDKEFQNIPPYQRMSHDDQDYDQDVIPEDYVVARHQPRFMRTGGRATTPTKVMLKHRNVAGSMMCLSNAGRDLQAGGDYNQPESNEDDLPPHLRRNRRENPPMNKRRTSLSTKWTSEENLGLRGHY

[12] = target: Cystic fibrosis transmembrane conductance regulator/Golgi-associated PDZ and coiled-coil motif-containing protein (Homo sapiens, UniProt P13569+Q9HD26); assay: CAL PDZ peptide-binding inhibitors, dose response, biochemical, fluorescence polarization, Cerulean-tagged CAL PDZ, cherry-picks (AID 504773)
Vero = Vero cell cytotoxicity, cytotoxicity control for flavivirus capping enzyme inhibitors (AID 588742); format: functional; conditions: Chlorocebus sabaeus
[13] = target: T3, Tyrosyl-DNA phosphodiesterase 2 (Homo sapiens, UniProt O95551); assay: human TDP2 enzyme inhibitors, dose response, biochemical, epi absorbance, IC50 (AID 743297)
T3 sequence (O95551 whole entry): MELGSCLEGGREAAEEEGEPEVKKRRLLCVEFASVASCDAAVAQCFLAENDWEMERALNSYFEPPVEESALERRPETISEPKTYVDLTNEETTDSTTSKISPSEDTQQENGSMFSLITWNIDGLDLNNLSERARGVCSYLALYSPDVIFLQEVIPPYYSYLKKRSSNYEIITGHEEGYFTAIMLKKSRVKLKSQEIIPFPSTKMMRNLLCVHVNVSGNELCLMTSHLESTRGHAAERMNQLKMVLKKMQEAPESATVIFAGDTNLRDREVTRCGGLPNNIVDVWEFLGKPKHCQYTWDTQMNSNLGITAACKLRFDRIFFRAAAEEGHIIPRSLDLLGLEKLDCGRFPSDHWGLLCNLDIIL

NS3 = NS3 (Hepatitis C virus, UniProt A3EZJ3); assay: PubChem AID 2173; set-up: species or system Hepacivirus hominis
[14] = target: T4, Sphingosine 1-phosphate receptor 4 (Homo sapiens, UniProt O95977); assay: Late stage fluorescence dose response cell-based screening assay for antagonists of the Sphingosine 1-Phosphate Receptor 4 (S1P4). [Related pubchem assays: 1524 (Confirmation screen (S1P4 antagonists).), 1510 (Primary screen (S1P4 antagonists).), 1853 (Summary AID (S1P4 antagonists).), 1692 (Dose response screen (S1P4 antagonists).)]; format: functional
T4 sequence (O95977 whole entry): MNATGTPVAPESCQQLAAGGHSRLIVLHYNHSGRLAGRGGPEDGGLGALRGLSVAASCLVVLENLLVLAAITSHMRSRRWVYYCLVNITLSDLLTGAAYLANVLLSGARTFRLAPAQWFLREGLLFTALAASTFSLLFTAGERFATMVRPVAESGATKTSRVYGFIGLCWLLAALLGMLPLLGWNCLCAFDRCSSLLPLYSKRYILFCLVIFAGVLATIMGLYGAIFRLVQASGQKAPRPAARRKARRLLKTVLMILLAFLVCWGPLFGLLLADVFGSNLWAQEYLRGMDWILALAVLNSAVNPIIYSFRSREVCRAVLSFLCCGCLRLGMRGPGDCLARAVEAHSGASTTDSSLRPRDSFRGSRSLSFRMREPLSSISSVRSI

[15] = target: T4, Sphingosine 1-phosphate receptor 4; assay: Fluorescence dose response cell-based high throughput screening assay for antagonists of the Sphingosine 1-Phosphate Receptor 4 (S1P4). [Related pubchem assays: 1524 (Confirmation in triplicates.), 1510 (Primary screen.)]; format: functional

Chain of NS3 (A3EZJ3 whole entry): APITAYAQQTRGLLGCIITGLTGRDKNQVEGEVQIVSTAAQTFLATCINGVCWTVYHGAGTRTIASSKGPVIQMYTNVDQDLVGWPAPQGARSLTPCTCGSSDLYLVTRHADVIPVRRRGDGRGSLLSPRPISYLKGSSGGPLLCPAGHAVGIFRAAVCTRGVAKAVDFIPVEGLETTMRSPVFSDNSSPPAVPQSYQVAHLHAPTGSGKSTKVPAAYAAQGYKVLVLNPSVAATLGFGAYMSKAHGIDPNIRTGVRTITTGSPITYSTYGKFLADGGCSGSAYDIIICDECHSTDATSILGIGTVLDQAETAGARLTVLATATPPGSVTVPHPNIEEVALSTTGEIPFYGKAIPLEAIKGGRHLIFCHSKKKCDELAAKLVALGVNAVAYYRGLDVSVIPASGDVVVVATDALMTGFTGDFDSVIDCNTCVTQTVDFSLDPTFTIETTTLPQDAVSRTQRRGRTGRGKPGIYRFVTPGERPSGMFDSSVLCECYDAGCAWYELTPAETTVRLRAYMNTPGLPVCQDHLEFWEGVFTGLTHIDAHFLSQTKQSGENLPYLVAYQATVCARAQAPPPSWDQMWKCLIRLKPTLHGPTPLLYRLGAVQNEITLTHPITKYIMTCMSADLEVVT
Chain of Cystic fibrosis transmembrane conductance regulator/Golgi-associated PDZ and coiled-coil motif-containing protein (P13569 whole entry, other chains not shown): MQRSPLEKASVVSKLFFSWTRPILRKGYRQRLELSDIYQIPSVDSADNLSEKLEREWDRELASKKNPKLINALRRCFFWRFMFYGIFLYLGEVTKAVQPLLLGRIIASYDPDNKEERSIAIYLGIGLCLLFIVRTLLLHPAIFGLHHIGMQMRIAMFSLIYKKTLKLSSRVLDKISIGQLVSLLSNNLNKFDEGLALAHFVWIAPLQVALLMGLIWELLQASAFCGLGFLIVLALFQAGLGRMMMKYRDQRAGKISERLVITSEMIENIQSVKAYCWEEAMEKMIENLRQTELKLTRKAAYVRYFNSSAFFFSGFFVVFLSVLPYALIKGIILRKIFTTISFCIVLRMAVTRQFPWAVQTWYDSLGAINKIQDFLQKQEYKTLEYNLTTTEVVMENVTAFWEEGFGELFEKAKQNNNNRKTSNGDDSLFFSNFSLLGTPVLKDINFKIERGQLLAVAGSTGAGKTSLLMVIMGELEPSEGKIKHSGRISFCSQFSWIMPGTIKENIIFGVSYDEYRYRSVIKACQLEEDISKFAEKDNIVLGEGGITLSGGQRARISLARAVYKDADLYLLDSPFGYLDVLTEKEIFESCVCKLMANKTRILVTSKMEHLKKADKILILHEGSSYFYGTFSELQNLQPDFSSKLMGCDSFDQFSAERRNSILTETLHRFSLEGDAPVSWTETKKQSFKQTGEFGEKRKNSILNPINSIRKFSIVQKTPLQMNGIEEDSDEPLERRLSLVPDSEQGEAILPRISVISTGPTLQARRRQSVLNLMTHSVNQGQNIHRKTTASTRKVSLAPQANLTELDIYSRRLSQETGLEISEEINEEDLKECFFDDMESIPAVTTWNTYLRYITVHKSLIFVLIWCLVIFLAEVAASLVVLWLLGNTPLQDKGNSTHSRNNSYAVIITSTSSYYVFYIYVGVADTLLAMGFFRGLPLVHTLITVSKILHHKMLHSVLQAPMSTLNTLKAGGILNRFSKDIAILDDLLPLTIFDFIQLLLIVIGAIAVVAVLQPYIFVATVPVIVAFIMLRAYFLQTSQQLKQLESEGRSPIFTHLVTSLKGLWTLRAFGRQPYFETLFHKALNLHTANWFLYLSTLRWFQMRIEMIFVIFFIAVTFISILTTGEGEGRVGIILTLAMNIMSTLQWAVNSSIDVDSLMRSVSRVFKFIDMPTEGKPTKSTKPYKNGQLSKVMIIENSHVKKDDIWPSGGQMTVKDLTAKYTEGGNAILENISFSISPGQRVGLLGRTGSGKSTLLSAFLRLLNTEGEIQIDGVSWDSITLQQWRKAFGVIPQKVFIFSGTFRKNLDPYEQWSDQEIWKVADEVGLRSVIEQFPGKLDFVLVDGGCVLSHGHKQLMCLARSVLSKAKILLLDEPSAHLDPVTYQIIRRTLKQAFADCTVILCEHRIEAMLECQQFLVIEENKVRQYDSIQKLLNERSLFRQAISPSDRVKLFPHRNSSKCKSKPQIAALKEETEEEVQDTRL

## O=C(CC(O)(C(F)(F)F)C(F)(F)F)Nc1ccc(Cl)c(Cl)c1
HEK293 [1]
  EC50: > 35.4 µM (not active)
[2]
  EC50: 16.5 µM (not active)
[3]
  AC50: 16.8 µM (active)
[4]
  AC50: 5.54 µM (active)

## O=C(CNc1cccc2ccccc12)N/N=C/c1ccc([N+](=O)[O-])o1
HEK293 [5]
  EC50: 3.28 µM (active)
[6]
  EC50: 0.901 µM (active)
HEK293 [7]
  IC50: 15.8 µM (active)
HEK293 [8]
  IC50: > 20 µM (inactive)
[9]
  AC50: > 70 µM (inactive)
[10]
  AC50: > 70 µM (inactive)

## O=C(O)CSc1cc(NS(=O)(=O)c2ccc(Br)cc2)c2ccccc2c1O
[11]
  EC50: 8.17 µM (active)
[12]
  AC50: 28.4 µM (active)
Vero
  CC50: 34 µM (active)
[13]
  IC50: 37.2 µM (inactive)

## Cc1ccc(NC(=O)C2=C(c3ccccc3)S(=O)(=O)CCS2(=O)=O)cc1
NS3
  IC50: 9.23 µM (active)
[14]
  IC50: 3.72 µM (not active)
[15]
  IC50: 1.04 µM (active)
